pIC50: −log10 of the molar value.
Assays:
hTLR7 = biological target: T1, hTLR7 (Homo sapiens, UniProt Q9NYK1); design: host or cells: HEK; details: data disclosed in US20150105370; read-out: HEK/hTLR7 IC50; cited from earlier work
T1 sequence (Q9NYK1 27-1049): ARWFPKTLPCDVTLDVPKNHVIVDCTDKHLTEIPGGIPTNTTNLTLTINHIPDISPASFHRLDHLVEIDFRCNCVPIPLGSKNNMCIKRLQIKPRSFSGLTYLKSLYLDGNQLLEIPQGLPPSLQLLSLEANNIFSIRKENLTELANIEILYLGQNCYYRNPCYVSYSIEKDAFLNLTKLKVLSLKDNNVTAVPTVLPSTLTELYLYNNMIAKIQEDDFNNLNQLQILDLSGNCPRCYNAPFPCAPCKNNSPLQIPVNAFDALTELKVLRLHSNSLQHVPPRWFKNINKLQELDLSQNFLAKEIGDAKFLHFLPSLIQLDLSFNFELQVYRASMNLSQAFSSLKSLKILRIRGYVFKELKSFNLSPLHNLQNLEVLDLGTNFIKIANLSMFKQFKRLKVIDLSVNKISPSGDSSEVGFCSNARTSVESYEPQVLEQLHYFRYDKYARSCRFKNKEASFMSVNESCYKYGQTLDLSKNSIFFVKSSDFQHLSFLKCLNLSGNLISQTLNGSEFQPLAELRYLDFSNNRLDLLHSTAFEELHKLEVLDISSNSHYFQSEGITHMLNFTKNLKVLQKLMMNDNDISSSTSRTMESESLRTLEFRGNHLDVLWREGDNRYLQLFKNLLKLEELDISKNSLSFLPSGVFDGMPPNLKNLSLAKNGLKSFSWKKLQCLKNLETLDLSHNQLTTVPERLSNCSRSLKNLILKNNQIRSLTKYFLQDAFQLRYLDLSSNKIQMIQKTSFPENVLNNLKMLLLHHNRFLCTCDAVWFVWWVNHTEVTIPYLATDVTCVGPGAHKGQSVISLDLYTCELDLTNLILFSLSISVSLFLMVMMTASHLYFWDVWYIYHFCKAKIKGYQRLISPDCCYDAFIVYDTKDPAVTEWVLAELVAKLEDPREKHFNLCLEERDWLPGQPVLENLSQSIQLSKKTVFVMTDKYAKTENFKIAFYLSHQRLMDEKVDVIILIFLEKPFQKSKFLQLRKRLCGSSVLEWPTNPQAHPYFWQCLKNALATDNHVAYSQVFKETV

hTLR9 = biological target: T2, hTLR9 (Homo sapiens, UniProt Q9NR96); design: host or cells: HEK; details: data disclosed in US20150105370; read-out: HEK/hTLR9 IC50; cited from earlier work
T2 sequence (Q9NR96 26-1032): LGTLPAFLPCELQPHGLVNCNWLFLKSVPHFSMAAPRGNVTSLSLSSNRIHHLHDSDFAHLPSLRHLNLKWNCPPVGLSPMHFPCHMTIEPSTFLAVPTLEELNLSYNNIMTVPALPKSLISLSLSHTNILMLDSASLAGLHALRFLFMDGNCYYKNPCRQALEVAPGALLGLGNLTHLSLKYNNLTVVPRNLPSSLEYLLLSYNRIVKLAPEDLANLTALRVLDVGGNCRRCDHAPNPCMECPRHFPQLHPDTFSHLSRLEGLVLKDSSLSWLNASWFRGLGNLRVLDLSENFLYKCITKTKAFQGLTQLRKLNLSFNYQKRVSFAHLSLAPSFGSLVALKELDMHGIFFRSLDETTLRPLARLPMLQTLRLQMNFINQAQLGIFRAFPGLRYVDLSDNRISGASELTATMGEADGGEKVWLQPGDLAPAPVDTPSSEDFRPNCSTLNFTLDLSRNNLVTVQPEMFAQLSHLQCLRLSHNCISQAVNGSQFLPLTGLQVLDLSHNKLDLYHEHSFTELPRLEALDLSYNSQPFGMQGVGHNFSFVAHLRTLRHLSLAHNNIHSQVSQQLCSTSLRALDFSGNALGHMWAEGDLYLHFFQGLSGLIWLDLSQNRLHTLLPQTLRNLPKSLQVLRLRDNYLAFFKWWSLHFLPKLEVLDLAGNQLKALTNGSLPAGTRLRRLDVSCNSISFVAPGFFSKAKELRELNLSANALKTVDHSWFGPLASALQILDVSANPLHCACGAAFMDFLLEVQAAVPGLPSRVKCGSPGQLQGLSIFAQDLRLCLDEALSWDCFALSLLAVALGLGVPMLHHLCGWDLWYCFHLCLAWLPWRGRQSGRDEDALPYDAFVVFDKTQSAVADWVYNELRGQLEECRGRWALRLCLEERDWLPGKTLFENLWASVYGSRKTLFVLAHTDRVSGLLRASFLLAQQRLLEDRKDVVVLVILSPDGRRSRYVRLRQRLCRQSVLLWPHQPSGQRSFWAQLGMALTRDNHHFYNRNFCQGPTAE

[1] = Human microsome stability assay; assay type: in vitro ADME; details: 1 µM test compound, 0.5 mg/mL liver microsomal protein, 37 °C
Description: The human microsomal stability assay is used for early assessment of metabolic stability of a test compound in human liver microsomes.
Human liver microsomes (Cat.NO.: 452117, Corning, USA;Cat.NO.:H2610, Xenotech, USA) were preincubated with test compound for 10 minutes at 37 °C in 100 mM potassium phosphate buffer, pH 7.4. The reactions were initiated by adding NADPH regenerating system. The final incubation mixtures contained 1 µM test compound, 0.5 mg/mL liver microsomal protein, 1 mM MgClz, 1 mM NADP, 1 unit/mL isocitric dehydrogenase and 6 mM isocitric acid in 100 mM potassium phosphate buffer, pH 7.4. After incubation times of 0, 3, 6, 9, 15 and 30 minutes at 37 °C, 300 µL of cold acetonitrile (including internal standard) was added to 100 µL incubation mixture to terminate the reaction. Following precipitation and centrifugation, the amount of compound remaining in the samples were determined by LC-MS/MS. Controls of no NADPH regenerating system at zero and 30 minutes were also prepared and analyzed. […] Table 6. Human liver microsome stability of the compounds of present invention

CYP2D6 = biological target: T3, CYP2D6 (Homo sapiens, UniProt P10635); assay: CYP inhibition assay in human liver microsome; assay type: in vitro ADME; details: human liver microsomes, probe dextromethorphan, 10µM test compound, dextromethorphan substrate, <0: not or weak inhibitor, read-out: CYP 2D6 inhibition %@10µM
T3 construct: tissue BD-Gentest 452117; host or cells: human liver microsomes
T3 sequence (P10635 whole entry): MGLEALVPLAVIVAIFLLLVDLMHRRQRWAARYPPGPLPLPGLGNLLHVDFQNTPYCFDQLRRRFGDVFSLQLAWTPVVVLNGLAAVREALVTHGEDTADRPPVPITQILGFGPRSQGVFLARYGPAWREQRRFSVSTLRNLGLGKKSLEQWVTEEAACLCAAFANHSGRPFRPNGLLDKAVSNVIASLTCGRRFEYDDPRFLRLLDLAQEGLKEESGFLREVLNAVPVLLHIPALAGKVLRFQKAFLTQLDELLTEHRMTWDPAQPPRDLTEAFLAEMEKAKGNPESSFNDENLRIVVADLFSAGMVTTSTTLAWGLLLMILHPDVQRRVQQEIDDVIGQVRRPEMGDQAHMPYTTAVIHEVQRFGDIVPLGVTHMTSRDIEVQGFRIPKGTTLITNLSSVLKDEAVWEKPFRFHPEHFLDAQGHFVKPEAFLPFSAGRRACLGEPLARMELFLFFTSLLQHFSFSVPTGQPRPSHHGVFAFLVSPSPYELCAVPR
Description: This is a high throughput screening assay used for assessment of reversible inhibition of CYP2D6 activity of test compounds in human liver microsome (HLM) in early discovery stage. Table 4. Chemicals and materials used in the CYP inhibition assay
10 mM DMSO stock solutions of test compounds were diluted in DMSO to generate 2 mM intermediate stock solution. 250 nL of intermediate stock solution were transferred in duplicate into 3 separate 384 well microtitre plates (assay-ready plates). A mixture of HLM and each substrate was made up. 45 µL of HLM substrate mix was then transferred to each well of an assay ready plate and mixed. The negative (solvent) and positive control (standard inhibitor for CYP 2D6) were included in each assay ready plate. The assay ready plate was warmed to 37 °C in an incubator over 10 minutes. 5 µL pre-warmed NADPH regenerating system was added to each incubation well to start the reaction. Final incubation volume was 50 µL. The assay plate then was placed back in the 37 °C incubator. After 10-minute incubation, incubates were quenched by addition of 50 µL 100% acetonitrile containing internal standards (20 ng/mL D3-Dextrorphan). The supernatants were collected for RapidFire/MS/MS analysis.
RapidFire online solid phase extraction/sample injection system (Agilent) coupled with API4000 triple quadrupole mass spectrometer (AB Sciex) were used for sample analysis. The mobile phase composed of acetonitrile and water supplemented with 0.1% formic acid. A C4 solid phase extraction cartridge is used for sample separation. MS detection is achieved in positive ion MRM mode.
Peak areas for substrate, metabolite and internal standard are determined using the RapidFire integrator software (version 3.6.12009.12296). Peak area ratios (PAR) of metabolite and internal standard (stable-labelled metabolite) are then calculated. The measurement window for each experiment is then defined: • PAR (0% activity)= average PAR for all incubations containing concentrated inhibitor; • Par (100% activity)= average PAR for all incubations containing no inhibitor (DMSO controls); • % Activity (test inhibitor) • =[PAR(test inhibitor)-PAR(0% activity)]/[PAR(100% activity)-PAR(0% activity)]; • % Inhibition (test inhibitor)=100-% Activity (test inhibitor).

SMILES: C[C@@H]1CN(c2ccc(C#N)c3ncccc23)C[C@H](CN2CC(NS(=O)(=O)c3ccc(F)cc3)C2)O1 [ER-894155]
- pIC50 (hTLR7): 6.55
- pIC50 (hTLR9): < 5.00

SMILES: Cc1nn(C)cc1S(=O)(=O)NC1CCN(C[C@H]2CN(c3ccc(C#N)c4ncccc34)C[C@@H](C)O2)CC1 [ER-894160]
- pIC50 (hTLR7): 6.70
- pIC50 (hTLR9): < 5.00

SMILES: C[C@@H]1CN(c2ccc(C#N)c3ncccc23)C[C@H](CN2CC[C@@H](NC(=O)c3ccccc3)C2)O1 [ER-894544]
- pIC50 (hTLR7): 7.37
- pIC50 (hTLR9): < 5.21

SMILES: C[C@@H]1CN(c2ccc(C#N)c3ncnn23)C[C@H](CN2CCN(c3cnc4c(c3)CNCC4)CC2)O1 [Example 27, 5-[(2R,6S)-2-methyl-6-[[4-(5,6,7,8-tetrahydro-1,6-naphthyridin-3-yl)piperazin-1-yl]methyl]morpholin-4-yl]-[1,2,4]triazolo[1,5-a]pyridine-8-carbonitrile]
- Clearance of Human microsome [1]: 7.28 mL/min/kg

SMILES: C[C@@H]1CN(c2ccc(C#N)c3ncccc23)C[C@H](CN2CC3COCC(C2)N3c2cnc3c(c2)CNC3)O1 [Example 37, 5-[(2S,6R)-2-[[9-(6,7-dihydro-5H-pyrrolo[3,4-b]pyridin-3-yl)-3-oxa-7,9-diazabicyclo[3.3.1]nonan-7-yl]methyl]-6-methyl-morpholin-4-yl]quinoline-8-carbonitrile]
- Clearance of Human microsome [1]: 6.72 mL/min/kg

SMILES: COc1ccc(N2C[C@H](CN3CCN(c4cc5c(cn4)CCNC5)CC3)O[C@H](C)C2)c2nccnc12 [Example 89, (2R,6S)-4-(8-methoxyquinoxalin-5-yl)-2-methyl-6-[[4-(5,6,7,8-tetrahydro-2,6-naphthyridin-3-yl)piperazin-1-yl]methyl]morpholine]
- Clearance of Human microsome [1]: 6.54 mL/min/kg

SMILES: Cc1cnc2c(C#N)ccc(N3C[C@H](CN4CCN(c5cc6c(cn5)CCNC6)CC4)O[C@H](C)C3)c2n1 [Example 90, 2-methyl-8-[(2R,6S)-2-methyl-6-[[4-(5,6,7,8-tetrahydro-2,6-naphthyridin-3-yl)piperazin-1-yl]methyl]morpholin-4-yl]quinoxaline-5-carbonitrile]
- inhibition at 10 min, 10 µM (CYP2D6): 5%

SMILES: C[C@@H]1CN(c2ccc(C(F)(F)F)c3nccnc23)C[C@H](CN2CCN(c3cc4c(cn3)CCNC4)CC2)O1 [Example 91, (2R,6S)-2-methyl-6-[[4-(5,6,7,8-tetrahydro-2,6-naphthyridin-3-yl)piperazin-1-yl]methyl]-4-[8-(trifluoromethyl)quinoxalin-5-yl]morpholine]
- inhibition at 10 min, 10 µM (CYP2D6): 14%

SMILES: C[C@@H]1CN(c2cc(=O)n(C)c3ncccc23)C[C@H](CN2CCN(c3ccc4c(n3)CN[C@@H]4C)CC2)O1 [Example 100, 1-methyl-4-[(2R,6S)-2-methyl-6-[[4-[(5R)-5-methyl-6,7-dihydro-5H-pyrrolo[3,4-b]pyridin-2-yl]piperazin-1-yl]methyl]morpholin-4-yl]-1,8-naphthyridin-2-one]
- Clearance of Human microsome [1]: 8.54 mL/min/kg

SMILES: CCn1c(=O)cc(N2C[C@H](CN3CCN(c4ccc5c(n4)CN[C@@H]5C)CC3)O[C@H](C)C2)c2cccnc21 [Example 101, 1-ethyl-4-[(2R,6S)-2-methyl-6-[[4-[(5R)-5-methyl-6,7-dihydro-5H-pyrrolo[3,4-b]pyridin-2-yl]piperazin-1-yl]methyl]morpholin-4-yl]-1,8-naphthyridin-2-one]
- Clearance of Human microsome [1]: 6.67 mL/min/kg

SMILES: C[C@@H]1CN(c2cc(=O)n(C)c3ncccc23)C[C@H](CN2CCN(c3cc4c(cn3)CCNC4)CC2)O1 [Example 103, 1-methyl-4-[(2R,6S)-2-methyl-6-[[4-(5,6,7,8-tetrahydro-2,6-naphthyridin-3-yl)piperazin-1-yl]methyl]morpholin-4-yl]-1,8-naphthyridin-2-one]
- Clearance of Human microsome [1]: 6.15 mL/min/kg
